Data reported in patent publication EP0523675A1, “Inhibitory agent against HIV superinfection” (priority 1991, dated 1993).
Where no end group is shown, it is not given here.

Test system: HTLV-IIIB virus (superinfection of L-2 cells)
Experiment: Inhibition of superinfection of L-2 cells with HTLV-IIIB, fluorescent antibody technique using V-17 (anti-p18) antibody
Format: cell-based, HIV (Human Immunodeficiency Virus)
Conditions: peptide final concentration 1 mg/ml, mixed with HTLV-IIIB virus liquid M.O.I. = 3.2 for 30 min at room temperature, then inoculated into L-2 cells; checked every 4 days; Fig. 2

In the case of TKGPSKLNDRADSRRS [CD4 peptide (45-60)], the “inhibitory effect on superinfection” value was “not at all observed”.
